The test system of one assay is BaF3 PIM1 cells. Description: In vitro cell proliferation potency assay, Cell Titer Glo (Example 902). It counts as cell-based, murine. The note with it: Mus musculus; BaF3 line transfected with PIM1, incubated overnight; read-out: Prolif BaF3 PIM1 (IC50). The method, then: (§1) BaF3 parental line was obtained from the DSMZ repository. BaF3 lines transfected with PIM 1 or PIM2 were generated. Mouse IL-3 was purchased from R&D Systems. G418 was purchased from Clontech. Media for BaF3 parental line contained RPMI, 10% FBS, 2 mM L-Glutamine, 2 ng/mL mIL-3. Media for BaF3 PIM1 & 2 lines contained RPMI, 10% FBS, 2 mM L-Glutamine, […]. Media for MM1.S (multiple myeloma cells) line contained RPMI, 10% FBS, 2 mM L-Glutamine.
(§2) BaF3, a murine interleukin-3 dependent pro-B cell line, parental cells, BaF3 PIM1 cells, BaF3 PIM2 cells, and MM1.S (multiple myeloma) cells were seeded at 2 k/well, 5 k/well, 5 k/well, and 10 k/well respectively, in a 384-well plate, at 45 μL/well. Test compound was added at 5 μL/well. BaF3 cells (parental and transfected) were incubated overnight, while MM1.S cells were incubated for 72 hours at 37° C., 5% CO2. Cell Titer Glo Reagent (Promega) was added at 50 μL/well, the plates were incubated for 30 minutes, and their luminescence read on an HT Analyst. IC50/EC50 values for the test compound were calculated.

In a further assay the test system is BaF3 parental cells. Described as above. It counts as cell-based, murine. The note with it: Mus musculus; BaF3 parental line, medium with 2 ng/mL mIL-3, incubated overnight; read-out: Prolif BaF3 IL3 (IC50). The method, then:
as §1, §2

The test system of assay [1] is MM1.S (multiple myeloma) cells. The assay is described as above. It counts as cell-based. The note with it: Homo sapiens, incubated for 72 hours, read-out: Prolif MM1S ATP (EC50). The method, then:
as §1, §2

For the next assay, the target named is PIM1 (Homo sapiens (Human), UniProt P11309). Description: Pim kinase binding activity, Caliper LC3000 microfluidic peptide phosphorylation assay (Example 901). In kind it is biochemical. The settings on record: 20 pM PIM1, 1 μM FAM-peptide, 10 μM ATP, 90 minutes at room temperature; read-out: PIM1 LC3K (KI). The method, then: (§3) PIM-1, -2, and -3 enzymes were generated as fusion proteins expressed in bacteria and purified by IMAC column chromatography (Sun, X., Chiu, J. F., and He, Q. Y. (2005) Expert Rev. Proteomics, 2:649-657). A fluorescent-labeled Pim-specific peptide substrate, was custom synthesized by American Peptide Company (Sunnyvale, Calif.). Reaction Buffer contained 10 mM HEPES, pH 7.2, 10 mM MgCl2, 0.01% Tween 20, 2 mM DTT. Termination Buffer contained 190 mM HEPES, pH 7.2, 0.015% Brij-35, 0.2% Coating Reagent 3 (Caliper Life Sciences, Hopkinton, Mass.), 20 mM EDTA. Separation Buffer contained 100 mM HEPES, pH 7.2, 0.015% Brij-35, 0.1% Coating Reagent 3, 1:200 Coating Reagent 8 (Caliper Life Sciences, Hopkinton, Mass.), 10 mM EDTA and 5% DMSO.
PIM1, sequence (P11309 whole entry, the tested form may be a part): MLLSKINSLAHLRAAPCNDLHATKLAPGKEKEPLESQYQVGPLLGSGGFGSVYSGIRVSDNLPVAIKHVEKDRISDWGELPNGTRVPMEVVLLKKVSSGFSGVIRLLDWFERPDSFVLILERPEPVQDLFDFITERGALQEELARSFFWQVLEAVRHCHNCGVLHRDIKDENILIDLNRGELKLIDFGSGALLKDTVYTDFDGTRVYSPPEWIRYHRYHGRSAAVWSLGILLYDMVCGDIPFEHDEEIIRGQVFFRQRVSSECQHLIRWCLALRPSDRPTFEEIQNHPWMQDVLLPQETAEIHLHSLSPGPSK
(§4) PIM reactions were carried out in a final volume of 10 μL per well in a 384-well plate. A standard enzymatic reaction, initiated by the addition of 5 μL 2×ATP and test compound to 5 μL of 2× enzyme and FAM-peptide, contained 20 pM PIM1, 50 pM PIM2, or 55 pM PIM3, 1 μM FAM-peptide, and 10 μM ATP, in Reaction Buffer. After 90 minutes of incubation at room temperature, the phosphorylation reaction was stopped by the addition of 10 μL Termination Buffer. The product and substrate in each independent reaction were separated on a 12-sipper microfluidic chip (Caliper Life Sciences, Hopkinton, Mass.) run on a Caliper LC3000® (Caliper Life Sciences, Hopkinton, Mass.). The separation of product and substrate was optimized by choosing voltages and pressure using Caliper's Optimizer software (Hopkinton, Mass.). The separation conditions used a downstream voltage of −500V, an upstream voltage of −2150V, and a screening pressure of −1.2 psi. The product and substrate fluorophore were excited at 488 nm and detected at 530 nm. Substrate conversion was calculated from the electropherogram using HTS Well Analyzer software (Caliper Life Sciences, Hopkinton, Mass.). Ki values for the test compound were calculated.

Another assay addresses PIM3 (Homo sapiens (Human), UniProt Q86V86). The description is as above. It counts as biochemical. The note with it: 55 pM PIM3, 1 μM FAM-peptide, 10 μM ATP, 90 minutes at room temperature; read-out: PIM3 LC3K (KI). The method, then:
as §3, §4

The target of another assay is PIM2 (Homo sapiens (Human), UniProt Q9P1W9). The description is as above. It counts as biochemical. The settings on record: 50 pM PIM2, 1 μM FAM-peptide, 10 μM ATP, 90 minutes at room temperature; read-out: PIM2 LC3K (KI). The procedure:
A fluorescent-labeled Pim-specific peptide substrate, was custom synthesized by American Peptide Company (Sunnyvale, Calif.). Reaction Buffer contained 10 mM HEPES, pH 7.2, 10 mM MgCl2, 0.01% Tween 20, 2 mM DTT. Termination Buffer contained 190 mM HEPES, pH 7.2, 0.015% Brij-35, 0.2% Coating Reagent 3 (Caliper Life Sciences, Hopkinton, Mass.), 20 mM EDTA. Separation Buffer contained 100 mM HEPES, pH 7.2, 0.015% Brij-35, 0.1% Coating Reagent 3, 1:200 Coating Reagent 8 (Caliper Life Sciences, Hopkinton, Mass.), 10 mM EDTA and 5% DMSO.
as §4, with “A standard enzymatic reaction, initiated by the addition of 5 μL 2×ATP and test compound to 5 μL of 2× enzyme and FAM-peptide, contained 20 pM PIM1, 50 pM PIM2, or 55 pM PIM3, 1 μM FAM-peptide, and 10 μM ATP, in Reaction Buffer.” left out, “The product and substrate fluorophore were excited at 488 nm and detected at 530 nm.” left out

Drawing on patent US8669361B2, “Pyrazol-4-yl-heterocyclyl-carboxamide compounds and methods of use” (Genentech, Inc., priority 2010, dated 2014), this text covers IC50, EC50 and Ki for 13 molecules.

pEC50, pIC50, pKi: −log10 of the molar value.

PIM2, sequence (Q9P1W9 whole entry): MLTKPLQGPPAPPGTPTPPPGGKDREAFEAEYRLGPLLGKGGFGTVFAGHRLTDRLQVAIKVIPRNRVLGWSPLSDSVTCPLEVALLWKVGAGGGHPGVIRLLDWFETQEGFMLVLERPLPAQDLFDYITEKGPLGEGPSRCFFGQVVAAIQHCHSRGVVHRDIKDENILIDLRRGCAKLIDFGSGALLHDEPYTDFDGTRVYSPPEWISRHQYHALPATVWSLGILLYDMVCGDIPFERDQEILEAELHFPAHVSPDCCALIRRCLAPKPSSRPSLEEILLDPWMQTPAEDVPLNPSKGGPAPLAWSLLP

One may read the pIC50 as −log10 of the IC50, conventionally taken in molar units. The term pEC50 denotes the EC50 on a negative log10 scale, so that one unit is a factor of ten. The pKi is −log10 of the Ki, conventionally taken in molar units. Take `Nc1sc(-c2c(F)cccc2F)nc1C(=O)Nc1cn[nH]c1N1CCC[C@H](N)C1` [Example 103, (S)-5-amino-N-(5-(3-aminopiperidin-1-yl)-1H-pyrazol-4-yl)-2-(2,6-difluorophenyl)thiazole-4-carboxamide]: the pIC50 in the assay with BaF3 PIM1 cells is 5.14; in the assay on BaF3 parental cells it was 4.97. In assay [1], the pEC50 was 5.04. The negative logarithm of the Ki (pKi) was 8.19 at PIM1, 8.31 on PIM3 and 7.26 on PIM2.

`Cn1ncc(NC(=O)c2nc(-c3c(F)cccc3F)sc2N)c1N1CCC[C@H](N)C1` [Example 106, (S)-5-amino-N-(5-(3-aminopiperidin-1-yl)-1-methyl-1H-pyrazol-4-yl)-2-(2,6-difluorophenyl)thiazole-4-carboxamide]: the pIC50 with BaF3 PIM1 cells is 5.42; in the assay on BaF3 parental cells, 5.18. The pEC50 in assay [1] is 5.38.

On to `Cn1ncc(NC(=O)c2nc(-c3c(F)cccc3F)sc2N)c1N1CCC(N)CC1` [Example 108, 5-amino-N-(5-(4-aminopiperidin-1-yl)-1-methyl-1H-pyrazol-4-yl)-2-(2,6-difluorophenyl)thiazole-4-carboxamide], for which the values for the negative-log IC50 (pIC50) in the assay on BaF3 PIM1 cells and in the assay on BaF3 parental cells were 6.21 and 5.37, respectively. Besides, the pEC50 in assay [1] is 5.09.

For the molecule `Cn1ncc(NC(=O)c2nc(-c3ccccc3F)ccc2N)c1N1CCC(N)CC1` [Example 110, 3-amino-N-(5-(4-aminopiperidin-1-yl)-1-methyl-1H-pyrazol-4-yl)-6-(2-fluorophenyl)picolinamide], the pIC50 in the assay on BaF3 PIM1 cells was 5.82; with BaF3 parental cells, 4.92. Also, the pEC50 in assay [1] was 4.79.

In the case of `Cn1ncc(NC(=O)c2nc(-c3ccccc3F)ccc2N)c1N1CCC[C@H](N)C1` [Example 111, (S)-3-amino-N-(5-(3-aminopiperidin-1-yl)-1-methyl-1H-pyrazol-4-yl)-6-(2-fluorophenyl)picolinamide], the pIC50 in the assay on BaF3 PIM1 cells is 5.38; in the assay on BaF3 parental cells, 4.88. For the same molecule, the pEC50 in assay [1] is 5.15.

Take `Cn1ncc(NC(=O)c2nc(-c3ccccc3F)ccc2N)c1N1CCCC(N)CC1` (stereo not shown) [Example 114, 3-amino-N-(5-(4-aminoazepan-1-yl)-1-methyl-1H-pyrazol-4-yl)-6-(2-fluorophenyl)picolinamide]: the values for the pIC50 with BaF3 PIM1 cells and in the assay on BaF3 parental cells were 5.64 and 5.26, respectively. In addition, the pKi was 9.94 on PIM1, 9.80 at PIM3 and 8.78 on PIM2.

As to `Cn1ncc(NC(=O)c2nc(-c3c(F)cccc3F)sc2N)c1OCC1CCNCC1` [Example 115, 5-amino-2-(2,6-difluorophenyl)-N-(1-methyl-5-(piperidin-4-ylmethoxy)-1H-pyrazol-4-yl)thiazole-4-carboxamide], the pIC50 with BaF3 PIM1 cells was 5.35; in the assay with BaF3 parental cells it was 5.21. Besides, the negative-log Ki (pKi) on PIM1 was 8.94; at PIM3, 8.97; at PIM2 it was 7.34.

As to `Cn1ncc(NC(=O)c2nc(-c3ccccc3F)cnc2N)c1N1CCC[C@H](N)C1` [Example 119, (S)-3-amino-N-(5-(3-aminopiperidin-1-yl)-1-methyl-1H-pyrazol-4-yl)-6-(2-fluorophenyl)pyrazine-2-carboxamide], the results for the pIC50 with BaF3 PIM1 cells and in the assay on BaF3 parental cells were 5.89 and 5.28, respectively. Besides, the pKi on PIM3 was 9.52; on PIM2, 8.67.

In the case of `Cn1ncc(NC(=O)c2nc(-c3c(F)cccc3F)sc2N)c1OC1CCNCC1` [Example 120, 5-amino-2-(2,6-difluorophenyl)-N-(1-methyl-5-(piperidin-4-yloxy)-1H-pyrazol-4-yl)thiazole-4-carboxamide], the results for the pIC50 in the assay with BaF3 PIM1 cells and with BaF3 parental cells were 5.11 and 4.60, respectively. The figures for the pKi on PIM1 and at PIM3 were 8.71 and 8.96, respectively.

Consider `Cn1ncc(NC(=O)c2nc(-c3ccccc3F)cnc2N)c1N1CCC(N)CC1` [Example 122, 3-amino-N-(5-(4-aminopiperidin-1-yl)-1-methyl-1H-pyrazol-4-yl)-6-(2-fluorophenyl)pyrazine-2-carboxamide], for which the pIC50 in the assay on BaF3 PIM1 cells is 5.96; with BaF3 parental cells it was 4.92. The pKi is 9.55 at PIM1, 9.02 at PIM3 and 7.83 on PIM2.

With `Cn1ncc(NC(=O)c2nc(-c3ccccc3F)ccc2N)c1N1CCC[C@H](CN)C1` [Example 129, (R)-3-amino-N-(5-(3-(aminomethyl)piperidin-1-yl)-1-methyl-1H-pyrazol-4-yl)-6-(2-fluorophenyl)picolinamide], the figures for the pIC50 with BaF3 PIM1 cells and with BaF3 parental cells were 5.29 and 4.67, respectively. The pKi is 9.46 on PIM1, 8.88 on PIM3 and 7.99 at PIM2.

For `Cn1ncc(NC(=O)c2nc(-c3c(F)cccc3F)sc2N)c1N1CC[C@H](CN)C1` [Example 135, (R)-5-amino-N-(5-(3-(aminomethyl)pyrrolidin-1-yl)-1-methyl-1H-pyrazol-4-yl)-2-(2,6-difluorophenyl)thiazole-4-carboxamide], the pIC50 with BaF3 PIM1 cells is 6.18; in the assay on BaF3 parental cells, 5.03. For the same molecule, the negative logarithm of the Ki (pKi) at PIM1 is 9.30; on PIM3, 9.46; on PIM2, 7.97.

For the molecule `Cn1ncc(NC(=O)c2nc(-c3ccccc3F)cnc2N)c1N1CCC[C@@H](N)CC1` [Example 141, (R)-3-amino-N-(5-(4-aminoazepan-1-yl)-1-methyl-1H-pyrazol-4-yl)-6-(2-fluorophenyl)pyrazine-2-carboxamide], the figures for the pIC50 in the assay on BaF3 PIM1 cells and in the assay on BaF3 parental cells were 6.66 and 5.96, respectively. The pKi at PIM3 was 9.53; at PIM2 it was 8.45.
